Measurements: patent publication US9738607B2, “Scalable process for the preparation of Sorafenib tosylate ethanol solvate and Sorafenib tosylate form III” (F.I.S.—FABBRICA ITALIANA SINTETICI S.P.A, priority 2015, dated 2017)

What was measured:
[1] = Stability study of Sorafenib hemi-tosylate monohydrate under four humidity/temperature conditions, XRPD; assay type: physicochemical
Protocol: Four different humidity/temperature conditions were selected for this study: • Humidity (60% RH) at room temperature, • High humidity (94% RH) at room temperature, • Accelerated conditions of ICH guidelines (40° C.-70% RH), • 80° C. under vacuum.
Karl-Fischer and DSC/TGA analyses confirmed that Sorafenib hemi-tosylate is a monohydrate (water content 3.9% for KF and 2.7% for TGA—3.1% calc. for a monohydrate). This form was previously characterized in WO2009/092070 but, as Karl-Fischer and TGA were not performed, the presence of water in this crystalline form was not mentioned. […] However, at 80° C. under vacuum, traces of SORAFENIB free base were detected after almost three months.

[2] = Stability studies of Sorafenib tosylate form III (humidity/temperature storage); assay type: physicochemical; details: form III obtained from methanol solvate
Protocol: Stability studies of the free Sorafenib tosylate form III were already performed. These studies indicate that form III remained stable 3 months under accelerated conditions of ICH guideline (40° C.-70% RH) and less than 7 months at RT under 94% RH, while it remained stable at least 7 month at RT under 60% RH.
As the stability study of Sorafenib tosylate form III was performed with Sorafenib tosylate form III obtained from Sorafenib tosylate methanol solvate, only a minor difference in behavior could be possible with this new solid.

time remained stable ([1]; 60% RH at room temperature) | time remained stable ([1]; 70% RH at 40° C.) | time remained stable ([1]; 94% RH at room temperature) | crystalline changes by XRPD ([1]; after 119 days at 60% RH at room temperature) | crystalline changes by XRPD ([1]; after 119 days at 70% RH at 40° C.) | crystalline changes by XRPD ([1]; after 119 days at 94% RH at room temperature) | time form III remained stable ([2]; RT under 60% RH) | time form III remained stable ([2]; RT under 94% RH) | time form III remained stable ([2]; accelerated conditions of ICH guideline (40° C.-70% RH)) | Compound | crystalline changes by XRPD ([1]; after 88 days at 80° C. under vacuum)
at least four | at least four | at least four | No crystalline changes were detected | No crystalline changes were detected | No crystalline changes were detected |  |  |  | CNC(=O)c1cc(Oc2ccc(NC(=O)Nc3ccc(Cl)c(C(F)(F)F)c3)cc2)ccn1.Cc1ccc(S(=O)(=O)O)cc1 [Sorafenib hemi-tosylate] | traces of Sorafenib free base were observed
 |  |  |  |  |  | at least 7 month | less than 7 months | 3 months | CNC(=O)c1cc(Oc2ccc(NC(=O)Nc3ccc(Cl)c(C(F)(F)F)c3)cc2)ccn1.Cc1ccc(S(=O)(=O)O)cc1 [Sorafenib tosylate form III, 4-[4-({[4-chloro-3-(trifluoromethyl)phenyl]carbamoyl}amino)phenoxy]-N-methylpyridine-2-carboxamide 4-methylbenzenesulfonate (1:1)] | 
